Tests used:
Assay in all cases: Zone of inhibition screen, 96 well agar array format
Assay type in all cases: cell-based
Design in all cases: scale not given here
E. faecalis (CL 4877) = system: E. faecalis (CL 4877)
Method in brief: (§1)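 Agar-array screen, 96-well; single compounds vs. strain panel (panel also incl. E. faecium ATCC 49624); antibacterial activity scored.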

[1] = system: S. epidermidis (ATCC 12228)
Method in brief: as §1

S. aureus (ATCC 29213) = system: S. aureus (ATCC 29213)
Method in brief: as §1

[2] = zone of inhibition relative to 1 mg/ml p-chlorobiphenylvancomycin
[3] = zone of inhibition relative to 1 mg/ml stock solution of p-chlorobiphenylvancomycin

CC1OC(OC2C(Oc3c4cc5cc3Oc3ccc(cc3Cl)C(O)C3NC(=O)C(NC(=O)C5NC(=O)C(CC(N)=O)NC(=O)C(NC(=O)c5ccc(F)cc5)C(O)c5ccc(c(Cl)c5)O4)c4ccc(O)c(c4)-c4c(O)cc(O)cc4C(C(=O)O)NC3=O)OC(CO)C(O)C2O)CC(C)(NCc2ccc(-c3ccc(Cl)cc3)cc2)C1O (stereo not drawn) [Compound 270]
2: zone score, E. faecalis CL 4877 (E. faecalis (CL 4877); [2]) | zone score, S. epidermidis ATCC 12228 [1, 2] | zone score, S. aureus ATCC 29213 (S. aureus (ATCC 29213); [2])

CC1OC(OC2C(Oc3c4cc5cc3Oc3ccc(cc3Cl)C(O)C3NC(=O)C(NC(=O)C5NC(=O)C(CC(N)=O)NC(=O)C(NC(=O)c5cccc(O)c5)C(O)c5ccc(c(Cl)c5)O4)c4ccc(O)c(c4)-c4c(O)cc(O)cc4C(C(=O)O)NC3=O)OC(CO)C(O)C2O)CC(C)(NCc2ccc(-c3ccc(Cl)cc3)cc2)C1O (stereo not drawn) [Compound 261]
2: zone score, E. faecalis CL 4877 (E. faecalis (CL 4877); [2]) | zone score, S. epidermidis ATCC 12228 [1, 2] | zone score, S. aureus ATCC 29213 (S. aureus (ATCC 29213); [2])

CC(=O)NCC(=O)NCC(=O)NC1C(=O)NC(CC(N)=O)C(=O)NC2C(=O)NC3C(=O)NC(C(=O)NC(C(=O)O)c4cc(O)cc(O)c4-c4cc3ccc4O)C(O)c3ccc(c(Cl)c3)Oc3cc2cc(c3OC2OC(CO)C(O)C(O)C2OC2CC(C)(NCc3ccc(-c4ccc(Cl)cc4)cc3)C(O)C(C)O2)Oc2ccc(cc2Cl)C1O (stereo not drawn) [Compound 120]
2: zone score, E. faecalis CL 4877 (E. faecalis (CL 4877); [3]) | zone score, S. epidermidis ATCC 12228 [1, 3] | zone score, S. aureus ATCC 29213 (S. aureus (ATCC 29213); [3])

CC(=O)OCC(N)C(=O)NC1C(=O)NC(CC(N)=O)C(=O)NC2C(=O)NC3C(=O)NC(C(=O)NC(C(=O)O)c4cc(O)cc(O)c4-c4cc3ccc4O)C(O)c3ccc(c(Cl)c3)Oc3cc2cc(c3OC2OC(CO)C(O)C(O)C2OC2CC(C)(NCc3ccc(-c4ccc(Cl)cc4)cc3)C(O)C(C)O2)Oc2ccc(cc2Cl)C1O (stereo not drawn) [Compound 87]
2: zone score, E. faecalis CL 4877 (E. faecalis (CL 4877); [3]) | zone score, S. epidermidis ATCC 12228 [1, 3] | zone score, S. aureus ATCC 29213 (S. aureus (ATCC 29213); [3])

CC1OC(OC2C(Oc3c4cc5cc3Oc3ccc(cc3Cl)C(O)C3NC(=O)C(NC(=O)C5NC(=O)C(CC(N)=O)NC(=O)C(NC(=O)CNC(=O)CNC(=O)CCNC(=O)OCc5ccccc5)C(O)c5ccc(c(Cl)c5)O4)c4ccc(O)c(c4)-c4c(O)cc(O)cc4C(C(=O)O)NC3=O)OC(CO)C(O)C2O)CC(C)(NCc2ccc(-c3ccc(Cl)cc3)cc2)C1O (stereo not drawn) [Compound 210]
2: zone score, E. faecalis CL 4877 (E. faecalis (CL 4877); [2]) | zone score, S. epidermidis ATCC 12228 [1, 2] | zone score, S. aureus ATCC 29213 (S. aureus (ATCC 29213); [2])

COc1cc(OC)c(CNC(=O)CC(N)C(=O)NC2C(=O)NC(CC(N)=O)C(=O)NC3C(=O)NC4C(=O)NC(C(=O)NC(C(=O)O)c5cc(O)cc(O)c5-c5cc4ccc5O)C(O)c4ccc(c(Cl)c4)Oc4cc3cc(c4OC3OC(CO)C(O)C(O)C3OC3CC(C)(NCc4ccc(-c5ccc(Cl)cc5)cc4)C(O)C(C)O3)Oc3ccc(cc3Cl)C2O)c(OC)c1 (stereo not drawn) [Compound 45]
2: zone score, E. faecalis CL 4877 (E. faecalis (CL 4877); [3]) | zone score, S. epidermidis ATCC 12228 [1, 3] | zone score, S. aureus ATCC 29213 (S. aureus (ATCC 29213); [3])

CC(O)CC(=O)N[C@H]1C(=O)N[C@@H](CC(N)=O)C(=O)N[C@H]2C(=O)N[C@H]3C(=O)N[C@H](C(=O)N[C@@H](C(=O)O)c4cc(O)cc(O)c4-c4cc3ccc4O)[C@H](O)c3ccc(c(Cl)c3)Oc3cc2cc(c3O[C@@H]2O[C@H](CO)[C@@H](O)[C@H](O)[C@H]2O[C@@H]2C[C@@](C)(NCc3ccc(-c4ccc(Cl)cc4)cc3)[C@@H](O)[C@@H](C)O2)Oc2ccc(cc2Cl)[C@H]1O (stereo partly drawn) [Compound 262]
2: zone score, E. faecalis CL 4877 (E. faecalis (CL 4877); [2]) | zone score, S. epidermidis ATCC 12228 [1, 2] | zone score, S. aureus ATCC 29213 (S. aureus (ATCC 29213); [2])

CC(NC(N)=O)C(=O)NC1C(=O)NC(CC(N)=O)C(=O)NC2C(=O)NC3C(=O)NC(C(=O)NC(C(=O)O)c4cc(O)cc(O)c4-c4cc3ccc4O)C(O)c3ccc(c(Cl)c3)Oc3cc2cc(c3OC2OC(CO)C(O)C(O)C2OC2CC(C)(NCc3ccc(-c4ccc(Cl)cc4)cc3)C(O)C(C)O2)Oc2ccc(cc2Cl)C1O (mixture of isomers) [Compound 206]
2: zone score, E. faecalis CL 4877 (E. faecalis (CL 4877); [2]) | zone score, S. epidermidis ATCC 12228 [1, 2] | zone score, S. aureus ATCC 29213 (S. aureus (ATCC 29213); [2])

CC1OC(OC2C(Oc3c4cc5cc3Oc3ccc(cc3Cl)C(O)C3NC(=O)C(NC(=O)C5NC(=O)C(CC(N)=O)NC(=O)C(NC(=O)c5ccccc5SCCS(=O)(=O)c5ccc(Cl)cc5)C(O)c5ccc(c(Cl)c5)O4)c4ccc(O)c(c4)-c4c(O)cc(O)cc4C(C(=O)O)NC3=O)OC(CO)C(O)C2O)CC(C)(NCc2ccc(-c3ccc(Cl)cc3)cc2)C1O (stereo not drawn) [Compound 301]
2: zone score, E. faecalis CL 4877 (E. faecalis (CL 4877); [2]) | zone score, S. epidermidis ATCC 12228 [1, 2] | zone score, S. aureus ATCC 29213 (S. aureus (ATCC 29213); [2])

CC1OC(OC2C(Oc3c4cc5cc3Oc3ccc(cc3Cl)C(O)C3NC(=O)C(NC(=O)C5NC(=O)C(CC(N)=O)NC(=O)C(NC(=O)Cc5ccc(Cl)cc5Cl)C(O)c5ccc(c(Cl)c5)O4)c4ccc(O)c(c4)-c4c(O)cc(O)cc4C(C(=O)O)NC3=O)OC(CO)C(O)C2O)CC(C)(NCc2ccc(-c3ccc(Cl)cc3)cc2)C1O (stereo not drawn) [Compound 234]
2: zone score, E. faecalis CL 4877 (E. faecalis (CL 4877); [2]) | zone score, S. epidermidis ATCC 12228 [1, 2] | zone score, S. aureus ATCC 29213 (S. aureus (ATCC 29213); [2])

CC1OC(OC2C(Oc3c4cc5cc3Oc3ccc(cc3Cl)C(O)C3NC(=O)C(NC(=O)C5NC(=O)C(CC(N)=O)NC(=O)C(NC(=O)c5ccc6[nH]nnc6c5)C(O)c5ccc(c(Cl)c5)O4)c4ccc(O)c(c4)-c4c(O)cc(O)cc4C(C(=O)O)NC3=O)OC(CO)C(O)C2O)CC(C)(NCc2ccc(-c3ccc(Cl)cc3)cc2)C1O (stereo not drawn) [Compound 281]
2: zone score, E. faecalis CL 4877 (E. faecalis (CL 4877); [2]) | zone score, S. epidermidis ATCC 12228 [1, 2] | zone score, S. aureus ATCC 29213 (S. aureus (ATCC 29213); [2])
